Assay results from article PMC11747885, “Potent inhibitors of the human RNA ligase Rlig1 highlights its role in RNA integrity maintenance under oxidative cellular stress” (Chemical Science, 2025).
“And” between values parts separate entries of the source, which are not always exact repeats. Identical values can stand only once. Like-named read-outs stand apart in the source and are kept apart here.

How the values were obtained:
[1] = target: T1, Rlig1-AMP (Homo sapiens, UniProt Q8N999); test: FRET-based high-throughput screening of inhibitors for Rlig1-AMP; type: biochemical; conditions: HTS hits; for Raw data [w Enyzm]: with enzyme; for Raw data [w/o Enzym]: without enzyme
T1 construct: made in house; host or cells: E. coli BL21 (DE3), pET15b-Rlig1

[2] = system: c-Myc-Max; design: method as in MedChemExpress; conditions: c-Myc-Max dimerization; ref MedChemExpress; cited from earlier work
[3] = target: B-Raf kinase; design: method as in MedChemExpress; conditions: ref MedChemExpress; cited from earlier work
[4] = system: G9a; design: method as in MedChemExpress; conditions: ref MedChemExpress; cited from earlier work
[5] = system: GLP; design: method as in MedChemExpress; conditions: ref MedChemExpress; cited from earlier work
[6] = system: HCT-116; design: method as in MedChemExpress; conditions: ref MedChemExpress, read-out: IC50, Pol I-mediated rRNA synthesis; cited from earlier work
[7] = system: A375; design: method as in MedChemExpress; conditions: ref MedChemExpress, read-out: IC50, Pol I-mediated rRNA synthesis; cited from earlier work
[8] = system: MIA PaCa-2 cells; design: method as in MedChemExpress; conditions: ref MedChemExpress, read-out: IC50, Pol I-mediated rRNA synthesis; cited from earlier work
[9] = system: Pol II; design: method as in MedChemExpress; conditions: ref MedChemExpress; cited from earlier work
[10] = system: Pim-1; design: method as in MedChemExpress; conditions: ref MedChemExpress; cited from earlier work
[11] = system: Pim-2; design: method as in MedChemExpress; conditions: ref MedChemExpress; cited from earlier work
[12] = ref MedChemExpress, cited from earlier work
[13] = system: PU.1; design: method as in MedChemExpress; conditions: in vitro; ref MedChemExpress; read-out: IC50, PU.1 binding; cited from earlier work
[14] = target: λB; design: method as in MedChemExpress; conditions: in vitro; ref MedChemExpress; read-out: KD, DB1976-λB affinity; cited from earlier work
[15] = system: transcription factor PU.1; design: method as in MedChemExpress; conditions: ref MedChemExpress; cited from earlier work
[16] = system: FLT3 wild type; design: method as in MedChemExpress; conditions: ref MedChemExpress; cited from earlier work
[17] = system: FLT3-D835Y; design: method as in MedChemExpress; conditions: ref MedChemExpress; cited from earlier work
[18] = system: ALK2; design: method as in MedChemExpress; conditions: ref MedChemExpress; cited from earlier work
[19] = target: tau protein; design: method as in MedChemExpress; conditions: tau protein aggregation; ref MedChemExpress; cited from earlier work
[20] = system: T-type Ca2+ channels; design: method as in MedChemExpress; conditions: T-type currents; ref MedChemExpress; cited from earlier work
[21] = system: L-type currents; design: method as in MedChemExpress; conditions: ref MedChemExpress; cited from earlier work
[22] = system: Shp1 (SH-PTP1); design: method as in MedChemExpress; conditions: ref MedChemExpress; cited from earlier work
[23] = target: BCL-2; design: method as in MedChemExpress; conditions: ref MedChemExpress; cited from earlier work
[24] = system: JAK1; design: method as in MedChemExpress; conditions: ref MedChemExpress; cited from earlier work
[25] = system: JAK2; design: method as in MedChemExpress; conditions: ref MedChemExpress; cited from earlier work
[26] = system: JAK3; design: method as in MedChemExpress; conditions: ref MedChemExpress; cited from earlier work
[27] = system: Tyk2; design: method as in MedChemExpress; conditions: ref MedChemExpress; cited from earlier work
[28] = target: NMDA receptor; design: method as in MedChemExpress; conditions: ref MedChemExpress; cited from earlier work
[29] = system: VEGFR1; design: method as in MedChemExpress; conditions: ref MedChemExpress; cited from earlier work
[30] = system: VEGFR2; design: method as in MedChemExpress; conditions: ref MedChemExpress; cited from earlier work
[31] = system: FGFR1; design: method as in MedChemExpress; conditions: ref MedChemExpress; cited from earlier work
[32] = system: FGFR2; design: method as in MedChemExpress; conditions: ref MedChemExpress; cited from earlier work
[33] = system: PDGFRβ; design: method as in MedChemExpress; conditions: ref MedChemExpress; cited from earlier work
[34] = system: Fgr; design: method as in MedChemExpress; conditions: ref MedChemExpress; cited from earlier work
[35] = system: Fyn; design: method as in MedChemExpress; conditions: ref MedChemExpress; cited from earlier work
[36] = system: Hck; design: method as in MedChemExpress; conditions: ref MedChemExpress; cited from earlier work
[37] = system: Lck; design: method as in MedChemExpress; conditions: ref MedChemExpress; cited from earlier work
[38] = system: Lyn; design: method as in MedChemExpress; conditions: ref MedChemExpress; cited from earlier work
[39] = system: Src; design: method as in MedChemExpress; conditions: ref MedChemExpress; cited from earlier work
[40] = system: Yes; design: method as in MedChemExpress; conditions: ref MedChemExpress; cited from earlier work
[41] = DMSO; ref MedChemExpress; cited from earlier work
[42] = system: CDK7; design: method as in MedChemExpress; conditions: ref MedChemExpress; cited from earlier work
[43] = system: BRD4 BD1; design: method as in MedChemExpress; conditions: ref MedChemExpress; cited from earlier work
[44] = system: BRD4 BD2; design: method as in MedChemExpress; conditions: ref MedChemExpress; cited from earlier work
[45] = difference of raw data w/o and w enzyme
[46] = normalised value of 1-D Distance
[47] = difference of raw data without and with enzyme

T1 sequence (Q8N999 whole entry): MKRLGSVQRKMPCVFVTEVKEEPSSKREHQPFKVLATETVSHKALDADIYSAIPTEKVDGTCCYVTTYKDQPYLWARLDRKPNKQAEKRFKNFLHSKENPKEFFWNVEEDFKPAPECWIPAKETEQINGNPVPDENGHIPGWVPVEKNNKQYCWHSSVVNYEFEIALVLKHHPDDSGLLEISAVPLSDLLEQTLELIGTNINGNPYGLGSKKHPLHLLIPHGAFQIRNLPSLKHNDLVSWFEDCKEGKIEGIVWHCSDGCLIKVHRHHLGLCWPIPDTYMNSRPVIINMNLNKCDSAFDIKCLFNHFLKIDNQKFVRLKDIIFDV

Row | SMILES | 1-D Distance [1, 45] | 1-D Distance.npi ([1]; normalized value (npi)) | Raw data [w Enyzm] [1] | Raw data [w/o Enzym] [1] | other results
1 | O=[N+]([O-])c1ccc(Nc2ccccc2-c2ccccc2)c2nonc12 [10074-G5] | 758 | 91.4368 | 1415 | 2173 | IC50 [2]: 146000 nM
2 | CN(C)Cc1ccc(-c2cnn3c(-c4cccc(NC(=O)c5cccc(C(F)(F)F)c5)c4)ccnc23)cc1 [B-Raf IN 1] | 563 | 95.4397 | 7195 | 7758 | IC50 [3]: […]
3 | COc1cc2c(NC3CCN(C)CC3)cc(-c3ccc(C)o3)nc2cc1OCCCN1CCCC1 [CM-272] | 449 | 99.0872 | 6004 | 6453 | IC50 [4]: […]; IC50 [5]: 2 nM
4 | Cc1cnc(CNC(=O)c2c(=O)c3ccc(N4CCCN(C)CC4)nc3n3c2sc2ccccc23)cn1.Cl.Cl [CX-5461 dihydrochloride] | 1694 | – | 7215 | 8909 | 1-D Distance.npi [1, 46]: 72.2021; IC50 [6]: 142 nM; IC50 [7]: 113 nM; IC50 [8]: 54 nM; IC50 [9]: ≥ 25000 nM
5 | CN1CCCN(C(=O)c2cccc(-c3ccc(/C=C4/C(=O)Nc5ccc(Cl)cc54)o3)c2)CC1 [CX-6258] | 641 | 93.2533 | 5174 | 5815 | IC50 [10]: […]; IC50 [11]: 25 nM; solubility ([12]; DMSO): […]
6 | Cl.Cl.N=C(N)c1ccc2nc(-c3ccc(-c4nc5ccc(C(=N)N)cc5[nH]4)[se]3)[nH]c2c1 [DB1976 (dihydrochloride)] | 102 | 105.279 | 4805 | 4703 | IC50 [13]: 10 nM; Kd [14]: 12 nM; solubility ([12]; DMSO): 62.5 mg/mL and 120.13 mM; solubility ([12]; H2O): 18.33 mg/mL and 35.23 mM
7 | CC(C)N=C(N)c1ccc2nc(-c3ccc(OCc4cccc(COc5ccc(-c6nc7ccc(C(N)=NC(C)C)cc7[nH]6)cc5)c4F)cc3)[nH]c2c1 [DB2313] | 699 | – | 5551 | 4852 | 1-D Distance.npi [1, 46]: 88.7864; PU.1 inhibitor with an apoptosis of [15]: DB2313 is a potent transcription factor PU.1 inhibitor with an apoptosis of 14 nM. DB2313 disrupts the interaction of PU.1 with target gene promoters. DB2313 induces apoptosis of acute myeloid leukemia (AML) cells, and has anticancer effects[1].
8 | CN1CCC(Nc2nc(Nc3ccc(Oc4ccccc4)cc3)c3c(=O)[nH]cc(Br)c3n2)CC1 [G-749] | 603 | 93.9141 | 7489 | 8092 | IC50 [16]: 0.4 nM; IC50 [17]: 0.6 nM
9 | c1cc(-c2cnn3cc(-c4ccc(N5CCNCC5)cc4)cnc23)c2cccnc2c1 [LDN-212854] | 1181 | 85.2649 | 7408 | 8589 | IC50 [18]: 1.3 nM; solubility ([12]; DMSO): ≥ 30 mg/mL and ≥ 73.80 mM
10 | CN(C)c1ccc2c(c1)Sc1cc(N(C)C)ccc1N2.CS(=O)(=O)O.CS(=O)(=O)O [Leucomethylene blue (mesylate)] | 1844 | 72.1191 | 4383 | 6227 | Ki [19]: 120 nM
11 | COCC(=O)O[C@]1(CCN(C)CCCc2nc3ccccc3[nH]2)CCc2cc(F)ccc2[C@@H]1C(C)C.Cl.Cl [Mibefradil (dihydrochloride)] | – | – | 9508 | 11294 | 1-D Distance.npi ([1]; MedChemExpress library): 70.2795; 1-D Distance [1, 47]: 1786; IC50 [20]: 2700 nM; IC50 [21]: 18600 nM
12 | O=S(=O)(O)c1ccc2cc(N=Nc3cc(S(=O)(=O)O)c4cccnc4c3O)ccc2c1 [NSC-87877] | 982 | 87.5142 | 1020 | – | IC50 [22]: 355 nM; solubility ([12]; DMSO): 25 mg/mL and 54.41 mM
13 | COC1=CC(c2cc3ccccc3[nH]2)=N/C1=C\c1[nH]c(C)cc1C.CS(=O)(=O)O [Obatoclax (Mesylate)] | 702 | 94.4219 | 1010 | 1712 | Ki [23]: 220 nM
14 | NC(=O)c1cnc2[nH]ccc2c1N[C@@H]1[C@@H]2CC3C[C@H]1C[C@@](O)(C3)C2 [Peficitinib] | 1954 | – | 8816 | 10770 | IC50 [24]: 3.9 nM; IC50 [25]: 5 nM; IC50 [26]: […]; IC50 [27]: 4.8 nM
15 | N[C@@H](Cc1cc(CP(=O)(O)O)cc(-c2ccccc2Cl)c1)C(=O)O [SDZ 220-581] | 1679 | 76.8207 | 24871 | 26550 | pKi [28]: SDZ 220-581 is an orally active, potent, competitive NMDA receptor antagonist with pKi value of 7.7[1].; solubility ([12]; DMSO): 8.57 mg/mL and 23.18 mM
16 | Cc1cc(-c2cc(O)ccc2Cl)cc2nnc(Nc3ccc(OCCN4CCCC4)cc3)nc12.Cl [TG 100572 (Hydrochloride)] | – | – | 3376 | 3338 | 1-D Distance.npi ([1]; MedChemExpress library): 103.738; 1-D Distance [1, 47]: 38; IC50 [29]: 2 nM; IC50 [30]: 7 nM; IC50 [31]: 2 nM; IC50 [32]: 16 nM; IC50 [33]: 13 nM; IC50 [34]: 5 nM; IC50 [35]: 0.5 nM; IC50 [36]: 6 nM; IC50 [37]: 0.1 nM; IC50 [38]: 0.4 nM; IC50 [39]: 1 nM; IC50 [40]: 0.2 nM; solubility [41]: 25 mg/mL and 48.79 mM
17 | CN(C)C/C=C/C(=O)Nc1ccc(C(=O)Nc2cccc(Nc3ncc(Cl)c(-c4c[nH]c5ccccc45)n3)c2)cc1.Cl [THZ1 (Hydrochloride)] | 289 | 99.9172 | 6030 | 5741 | IC50 [42]: 3.2 nM
18 | Cc1cc(N=Nc2ccc3c(c2)CCC(=O)N3)c(N)cc1O [ZL0420] | 1352 | 80.8903 | 1680 | 3032 | IC50 [43]: 27 nM; IC50 [44]: 32 nM
